Source: ChEMBL document CHEMBL5053535, “Design, synthesis and biological evaluation of novel aminopyrazole- and 7-azaindole-based Nek1 inhibitors and their effects on zebrafish kidney development” (Bioorg Med Chem Lett, 2021)
In brackets after ≈: the same amount, converted by molar mass.

What was measured:
[1] = target: T1, Serine/threonine-protein kinase Nek1 (Homo sapiens) (UniProt Q96PY6); test: Inhibition of human NEK1 using myelin basic protein as substrate assessed as residual activity at 1 uM in presence of [gamma-33P]-ATP by radiometric hotspot kinase assay relative to control
T1 sequence (whole entry): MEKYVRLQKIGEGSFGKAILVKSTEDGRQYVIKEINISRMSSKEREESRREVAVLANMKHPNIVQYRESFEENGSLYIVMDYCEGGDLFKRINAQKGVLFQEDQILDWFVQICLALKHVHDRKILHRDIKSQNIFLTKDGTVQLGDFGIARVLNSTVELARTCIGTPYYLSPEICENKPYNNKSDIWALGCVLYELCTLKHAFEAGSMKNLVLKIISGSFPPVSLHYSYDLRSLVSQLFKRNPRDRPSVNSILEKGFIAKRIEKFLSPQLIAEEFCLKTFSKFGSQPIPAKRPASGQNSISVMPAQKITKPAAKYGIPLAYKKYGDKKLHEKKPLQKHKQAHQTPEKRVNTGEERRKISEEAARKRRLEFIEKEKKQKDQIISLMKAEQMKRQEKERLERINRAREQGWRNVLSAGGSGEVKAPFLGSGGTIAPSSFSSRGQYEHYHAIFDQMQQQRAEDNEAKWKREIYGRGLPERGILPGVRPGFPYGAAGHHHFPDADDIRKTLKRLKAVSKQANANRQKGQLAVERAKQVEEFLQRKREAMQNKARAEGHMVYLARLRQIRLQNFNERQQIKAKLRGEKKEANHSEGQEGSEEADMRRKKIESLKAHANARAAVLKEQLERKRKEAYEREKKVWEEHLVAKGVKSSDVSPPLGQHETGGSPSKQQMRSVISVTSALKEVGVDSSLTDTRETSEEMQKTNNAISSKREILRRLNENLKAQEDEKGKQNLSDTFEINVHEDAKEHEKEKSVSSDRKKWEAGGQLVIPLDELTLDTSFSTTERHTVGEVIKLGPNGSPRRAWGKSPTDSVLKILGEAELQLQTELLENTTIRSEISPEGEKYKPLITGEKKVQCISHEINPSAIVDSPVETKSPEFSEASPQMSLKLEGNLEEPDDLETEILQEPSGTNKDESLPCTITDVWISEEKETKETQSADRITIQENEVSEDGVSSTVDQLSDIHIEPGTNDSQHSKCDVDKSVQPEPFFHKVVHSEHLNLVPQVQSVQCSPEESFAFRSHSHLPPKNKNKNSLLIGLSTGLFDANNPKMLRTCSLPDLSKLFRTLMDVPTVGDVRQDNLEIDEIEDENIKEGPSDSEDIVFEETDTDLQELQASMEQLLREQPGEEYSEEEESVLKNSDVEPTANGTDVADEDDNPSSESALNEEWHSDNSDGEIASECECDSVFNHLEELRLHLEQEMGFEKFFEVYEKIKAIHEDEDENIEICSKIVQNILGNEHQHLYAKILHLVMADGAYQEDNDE

[2] = target: T2, Serine/threonine-protein kinase Nek1 (Homo sapiens, UniProt Q96PY6); test: Inhibition of human NEK1 using myelin basic protein as substrate assessed as residual activity in presence of [gamma-33P]-ATP by radiometric hotspot kinase assay relative to control
T2 sequence (Q96PY6 whole entry): T1 sequence (whole entry)

[3] = target: Cyclin-dependent kinase 2/cyclin E1 (Homo sapiens) (UniProt P24864+P24941); test: (§1) Inhibition of human recombinant full length C-terminal His6 tagged CDK2/ N-terminal GST-tagged Cyclin E expressed in baculovirus infected Sf21 insect cells using histone H1 as substrate assessed as residual activity at 1 uM pretreated for 20 mins followed by [33P]-ATP addition measured after 120 mins by radiometric hotspot kinase assay relative to control; conditions: time 140.0 min
[4] = target: T3, Serine/threonine-protein kinase Chk1 (Homo sapiens) (UniProt O14757); test: as §1, with “N-terminal His” for “C-terminal His6”, “CHK1” for “CDK2/ N-terminal GST-tagged Cyclin E”, “CHKtide” for “histone H1”; conditions: time 140.0 min
T3 sequence (whole entry): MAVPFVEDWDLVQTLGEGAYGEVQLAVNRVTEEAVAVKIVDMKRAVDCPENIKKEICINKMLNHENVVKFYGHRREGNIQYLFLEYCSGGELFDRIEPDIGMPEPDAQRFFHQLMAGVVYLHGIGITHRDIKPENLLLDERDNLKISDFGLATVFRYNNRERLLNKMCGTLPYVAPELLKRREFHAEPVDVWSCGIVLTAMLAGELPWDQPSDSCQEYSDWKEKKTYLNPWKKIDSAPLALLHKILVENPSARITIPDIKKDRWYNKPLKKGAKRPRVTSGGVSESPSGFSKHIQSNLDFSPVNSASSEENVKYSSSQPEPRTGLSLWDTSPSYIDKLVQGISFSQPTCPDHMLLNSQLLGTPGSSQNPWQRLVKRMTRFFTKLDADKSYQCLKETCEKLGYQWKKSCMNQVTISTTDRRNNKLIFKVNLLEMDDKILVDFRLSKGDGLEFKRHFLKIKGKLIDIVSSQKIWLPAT

[5] = target: Vascular endothelial growth factor receptor 2 (Homo sapiens) (UniProt P35968); test: Inhibition of human recombinant C-terminal His6 tagged VEGFR2 (789 to 1356 residues) expressed in baculovirus infected insect cells assessed as residual activity at 1 uM pretreated for 20 mins followed by [33P]-ATP addition measured after 120 mins by radiometric hotspot kinase assay relative to control; conditions: time 140.0 min
[6] = target: T4, Serine/threonine-protein kinase Nek5 (Homo sapiens) (UniProt Q6P3R8); test: Inhibition of human recombinant NEK5 assessed as residual activity at 1 uM pretreated for 20 mins followed by [33P]-ATP addition measured after 120 mins by radiometric hotspot kinase assay relative to control; conditions: time 140.0 min
T4 sequence (whole entry): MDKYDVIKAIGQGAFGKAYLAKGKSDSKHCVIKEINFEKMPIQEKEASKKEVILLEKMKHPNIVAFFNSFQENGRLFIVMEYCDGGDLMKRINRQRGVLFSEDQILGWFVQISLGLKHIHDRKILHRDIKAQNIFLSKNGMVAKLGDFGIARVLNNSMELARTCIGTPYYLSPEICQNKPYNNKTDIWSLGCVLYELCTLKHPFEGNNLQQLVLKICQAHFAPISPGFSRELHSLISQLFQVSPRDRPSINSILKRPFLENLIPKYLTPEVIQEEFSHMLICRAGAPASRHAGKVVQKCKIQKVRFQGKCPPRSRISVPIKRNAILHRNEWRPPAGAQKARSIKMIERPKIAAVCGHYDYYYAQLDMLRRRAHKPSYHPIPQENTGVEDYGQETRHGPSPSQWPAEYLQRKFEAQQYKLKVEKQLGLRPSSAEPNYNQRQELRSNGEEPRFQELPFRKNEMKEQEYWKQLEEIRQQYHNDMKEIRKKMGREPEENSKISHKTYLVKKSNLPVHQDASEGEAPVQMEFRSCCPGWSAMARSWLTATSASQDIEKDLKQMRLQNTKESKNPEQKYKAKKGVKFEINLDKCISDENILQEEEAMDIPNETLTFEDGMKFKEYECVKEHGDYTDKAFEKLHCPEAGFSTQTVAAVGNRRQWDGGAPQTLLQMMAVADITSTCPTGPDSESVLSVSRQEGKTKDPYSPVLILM

[7] = target: Wee1-like protein kinase (Homo sapiens) (UniProt P30291); test: Inhibition of human recombinant full length WEE1 expressed in insect cells using MBP as substrate assessed as residual activity at 1 uM pretreated for 20 mins followed by [33P]-ATP addition measured after 120 mins by radiometric hotspot kinase assay relative to control; conditions: time 140.0 min
[8] = Solubility of the compound in E3 medium with 0.2% DMSO by DAD-HPLC based shake flask method; assay type: physicochemical
[9] = Solubility of the compound in DMEM with 1% DMSO by DAD-HPLC based shake flask method; assay type: physicochemical
[10] = Stability of the compound in DMEM measured after 48 hrs by DAD-HPLC method; assay type: physicochemical; conditions: read-out: Stability
Danio rerio [11] = organism: Danio rerio; test: Toxicity in zebra fish embryos assessed as overall survival at 0.01 to 2.5 uM measured after 96 hrs; assay type: organism-based; conditions: zebrafish, in vivo, dose 0.01-2.5 µM
Danio rerio [12] = organism: Danio rerio; test: (§2) Toxicity in wild type zebra fish model of polycystic kidney disease assessed as increase in fluorescence intensity at 2.5 uM incubated for 48 hrs in presence of N-phenyl thiourea further treated with PT-yellow for 20 mins followed by dye washout and incubated in solution containing compound for 96 hrs by fluorescence imaging analysis; assay type: organism-based; conditions: zebrafish, in vivo
Danio rerio [13] = organism: Danio rerio; test: as §2, with “minor tubular volume expansion” for “increase in fluorescence intensity”; assay type: organism-based; conditions: zebrafish, in vivo
[14] = Toxicity in zebra fish embryos assessed as lethality at 1.5 uM measured after 24 hrs relative to control; assay type: organism-based, Danio rerio; conditions: zebrafish, in vivo, read-out: Activity
Danio rerio [15] = organism: Danio rerio; test: Toxicity in zebra fish embryos assessed as adverse effects at >0.1 uM measured over 96 hrs; assay type: organism-based; conditions: zebrafish, in vivo
Danio rerio [16] = organism: Danio rerio; test: Toxicity in zebra fish embryos assessed as enlarged yolk sac at 0.1 uM measured after 96 hrs; assay type: organism-based; conditions: zebrafish, in vivo
Danio rerio [17] = organism: Danio rerio; test: Toxicity in zebra fish embryos assessed as curved tail at 0.1 uM measured after 96 hrs; assay type: organism-based; conditions: zebrafish, in vivo
Danio rerio [18] = organism: Danio rerio; test: Toxicity in zebra fish embryos assessed as phenotype changes at 0.01 to 2.5 uM measured after 96 hrs; assay type: organism-based; conditions: zebrafish, in vivo, dose 0.01-2.5 µM
Danio rerio [19] = organism: Danio rerio; test: as §2, with “0.1” for “2.5”; assay type: organism-based; conditions: zebrafish, in vivo

Chain of Wee1-like protein kinase (Homo sapiens) (P30291 whole entry, looked up): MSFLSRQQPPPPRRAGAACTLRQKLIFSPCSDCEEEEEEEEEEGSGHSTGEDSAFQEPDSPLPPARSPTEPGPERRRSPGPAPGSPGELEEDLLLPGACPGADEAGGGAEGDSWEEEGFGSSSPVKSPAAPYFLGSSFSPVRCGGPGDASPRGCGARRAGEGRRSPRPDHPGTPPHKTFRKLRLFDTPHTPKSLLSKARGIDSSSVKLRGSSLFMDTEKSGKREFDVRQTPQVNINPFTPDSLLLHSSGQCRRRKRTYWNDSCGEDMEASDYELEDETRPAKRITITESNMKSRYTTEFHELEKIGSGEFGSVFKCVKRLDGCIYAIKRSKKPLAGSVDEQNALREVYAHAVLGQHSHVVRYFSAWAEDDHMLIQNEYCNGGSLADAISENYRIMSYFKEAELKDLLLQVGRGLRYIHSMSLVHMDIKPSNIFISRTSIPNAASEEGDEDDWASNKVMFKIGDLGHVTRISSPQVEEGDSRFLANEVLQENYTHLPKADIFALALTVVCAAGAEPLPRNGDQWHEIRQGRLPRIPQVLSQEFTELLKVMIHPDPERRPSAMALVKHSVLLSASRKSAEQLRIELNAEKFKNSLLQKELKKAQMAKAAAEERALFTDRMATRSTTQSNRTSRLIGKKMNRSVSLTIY
Chain of Vascular endothelial growth factor receptor 2 (Homo sapiens) (P35968 whole entry, the tested form may be a part): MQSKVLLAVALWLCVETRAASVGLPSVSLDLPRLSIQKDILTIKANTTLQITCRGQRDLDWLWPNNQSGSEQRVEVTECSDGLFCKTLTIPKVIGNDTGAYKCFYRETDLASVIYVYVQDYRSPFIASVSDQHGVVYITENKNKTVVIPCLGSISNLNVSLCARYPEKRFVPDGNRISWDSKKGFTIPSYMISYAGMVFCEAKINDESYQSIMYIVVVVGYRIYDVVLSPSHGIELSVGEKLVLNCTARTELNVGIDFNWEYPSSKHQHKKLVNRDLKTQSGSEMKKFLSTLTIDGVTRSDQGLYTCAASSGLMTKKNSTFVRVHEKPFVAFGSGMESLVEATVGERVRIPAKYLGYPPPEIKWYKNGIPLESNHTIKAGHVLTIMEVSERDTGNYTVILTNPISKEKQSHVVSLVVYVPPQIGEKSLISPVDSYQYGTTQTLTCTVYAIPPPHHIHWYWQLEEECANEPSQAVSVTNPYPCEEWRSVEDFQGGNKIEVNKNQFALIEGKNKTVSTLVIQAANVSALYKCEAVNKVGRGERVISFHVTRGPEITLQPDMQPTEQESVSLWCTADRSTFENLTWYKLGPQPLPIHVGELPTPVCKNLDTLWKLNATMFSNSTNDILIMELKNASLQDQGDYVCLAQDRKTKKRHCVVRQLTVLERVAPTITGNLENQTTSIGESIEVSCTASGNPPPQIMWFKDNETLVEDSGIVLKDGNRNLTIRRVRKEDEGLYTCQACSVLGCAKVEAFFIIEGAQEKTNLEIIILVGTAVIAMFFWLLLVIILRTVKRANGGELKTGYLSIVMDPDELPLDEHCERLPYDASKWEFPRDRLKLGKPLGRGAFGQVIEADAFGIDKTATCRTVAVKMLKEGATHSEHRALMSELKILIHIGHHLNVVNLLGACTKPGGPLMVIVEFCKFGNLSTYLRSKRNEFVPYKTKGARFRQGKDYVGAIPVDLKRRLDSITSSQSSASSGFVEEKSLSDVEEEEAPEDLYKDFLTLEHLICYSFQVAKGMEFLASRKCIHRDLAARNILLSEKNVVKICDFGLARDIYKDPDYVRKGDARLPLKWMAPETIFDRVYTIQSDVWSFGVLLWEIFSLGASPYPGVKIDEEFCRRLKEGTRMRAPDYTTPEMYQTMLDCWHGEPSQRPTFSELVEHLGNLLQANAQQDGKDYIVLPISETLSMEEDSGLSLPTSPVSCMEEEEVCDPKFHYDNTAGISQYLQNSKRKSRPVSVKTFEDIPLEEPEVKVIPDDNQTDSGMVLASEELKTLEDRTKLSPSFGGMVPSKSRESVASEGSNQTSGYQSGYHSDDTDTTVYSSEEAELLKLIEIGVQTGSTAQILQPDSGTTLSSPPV

COC(=O)c1cccc(-c2cnc3[nH]cc(-c4ccncc4)c3c2)c1
Activity [1]: 13% | IC50 [2]: 140 nM | Activity [3]: 1.8% | Activity [4]: 85% | Activity [5]: 79.4% | Activity [6]: 58.5% | Activity [7]: 78.9% | solubility [8]: 30.9 µM (≈ 10.2 µg/mL) | solubility [9]: 34 µM (≈ 11.2 µg/mL) | remaining at 48 h [10]: 88% | Activity (Danio rerio [11]): Non-Toxic | Activity (Danio rerio [12]): Toxic | Activity (Danio rerio [13]): Toxic

Cc1nc(N)sc1-c1ccnc(Nc2cccc([N+](=O)[O-])c2)n1
mortality at 24 h, 1.5 µM [14]: 100% | Activity (Danio rerio [15]): Toxic | Activity (Danio rerio [16]): Toxic | Activity (Danio rerio [17]): Toxic | Activity (Danio rerio [18]): Non-Toxic | Activity (Danio rerio [19]): Toxic
